We go through two compounds from US20170334804A1, “F-18 LABELED TRACER AND METHODS OF MANUFACTURE” (The General Hospital Corporation, priority 2014, published 2017).

In the data set the test system is patients with stable coronary artery disease (CAD). The experiment in a line: PET/CT myocardial perfusion imaging in patients with stable CAD, compared with 99mTc Sestamibi SPECT and CTA. The data set is classed as in vivo, human. Conditions: for detecting areas of reversible myocardial perfusion: PET with FTPP vs SPECT with 99mTc Sestamibi, baseline and post-adenosine. How it is done: One of the objectives of this study: the PET image properties of FTPP as a myocardial perfusion agent were evaluated in patients with stable coronary artery disease (CAD).
Patients with stable CAD were included in a 3 day study protocol. Safety endpoints included vital signs, 12 lead ECG and clinical laboratory tests. Imaging was performed with Siemens Biograph 64 PET/CT scanner and imaging entailed a CT for positioning, attenuation measurement and evaluation of coronary artery anatomy (day-1). This was followed by baseline and post-adenosine SPECT imaging with ^99mTc Sestamibi. On day 2, 10 mCi of FTPP was administered followed by a second 10 mCi dose of FTPP and PET/CT imaging.

`[C-]#[N+]CC(C)(C)OC.[C-]#[N+]CC(C)(C)OC.[C-]#[N+]CC(C)(C)OC.[C-]#[N+]CC(C)(C)OC.[C-]#[N+]CC(C)(C)OC.[C-]#[N+]CC(C)(C)OC.[Tc]` [^99mTc Sestamibi, reference compound]: the “detecting areas of reversible myocardial perfusion” value is given as “similarly effective”.
`Fc1ccc([P+](c2ccccc2)(c2ccccc2)c2ccccc2)cc1` [FTPP, 4-[^18F]Fluorophenyltriphenylphosphonium ion]: the “detecting areas of reversible myocardial perfusion” value is recorded as “similarly effective”. Moreover, under “FIG. 2, person with chest pain”, the “image resolution, stress PET vs stress MIBI SPECT” value was “high resolution”. Besides, the “stress images, detection of ischemia” value (FIG. 3, stress images) was “confirming ischemia”. For the setting “patients with stable CAD”, the extraction from blood entry was “rapid”, the “heart uptake over time” value is on record as “stable”, the “imaging window after injection” value is no more than 30 min and the target-to-background ratios result is given as “high”. Besides, under “patients with stable CAD, preliminary findings”, the “blood flow imaging properties” value is recorded as “excellent”. Moreover, where the note is “vital signs, 12 lead ECG, clinical laboratory tests”, the safety result is recorded as “safe”.
